Patent US11299485B2, “Thiophene derivative and use thereof” (FUJIMOTO CO., LTD., priority 2018, dated 2022)

Tests used:
Assay type in all cases: cell-based
MM.1S cells = assay: Human myeloma cell line MM.1S proliferation suppression test; conditions: MM1.S, 72 h, compound 10 μM, 3 days, WST-1 or WST-8, read-out: cell survival rate (% of control) MM.1S
Method in brief: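 Cells at 2×10^5 cells/mL in RPMI1640 + 10% FCS, mixed 1:1 with compound diluted from DMSO stock (final 10 μM) versus DMSO-only control. Cultured 3 days at 37 °C, 5% CO2; proliferation read with WST-1 or WST-8.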

Pfeiffer cells = assay: Human diffuse large B-cell lymphoma cell line Pfeiffer proliferation suppression test; conditions: 144 h, compound 10 μM, 3 days + re-plating with compound 3 days, WST-8, read-out: cell survival rate (% of control) Pfeiffer
Method in brief: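 Pfeiffer cells were seeded at 1.3×10^5 cells/mL and dosed the next day with compound at 10 μM final (DMSO control), then grown 3 days at 37 °C, 5% CO2. An aliquot was then passaged into a fresh plate with compound re-added at 10 μM final for 3 more days. Proliferation was read by WST-8.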

[1] = test system: human peripheral blood mononuclear cells (PBMC); assay: Cytotoxicity test using human peripheral blood mononuclear cells (PBMC); conditions: compound 10 μg/mL, LPS, 24 hr, WST-1 or WST-8
Procedure: Example 56: Cytotoxicity Test Using Human Peripheral Blood Mononuclear Cells (PBMC)
Peripheral blood of a healthy adult was collected in a Venoject II vacuum blood collection tube (Terumo, containing EDTA/2Na), and then diluted two-fold with an equal volume of OTSUKA NORMAL SALINE (Otsuka Pharmaceutical Co., Ltd.). The diluted blood was mixed with Lymphoprep (AXIS-SHIELD) in half the volume of the diluted blood, dispensed into a 15 mL conical tube, and centrifuged at room temperature for 20 min (2,100 rpm). The mononuclear cells accumulated at the interface between Lymphoprep and plasma was transferred to a 50 mL conical tube, diluted with OTSUKA NORMAL SALINE, and the mononuclear cells suspension was centrifuged at room temperature for 10 min (1,150 rpm) and then the supernatant was removed. The mononuclear cells fraction obtained as a precipitate was suspended in an appropriate amount of medium A, and diluted as appropriate with 0.4% trypan blue solution (Sigma-Aldrich Co. LLC.). The number of viable cells was counted with a hemocytometer (ERMA INC.). It was diluted with medium A such that the value obtained was 5×10^5 cells/mL. On the other hand, 37.5 μL of medium A, 2.5 μL of 0.4 mg/mL test compound solution (DMSO solution 10-fold diluted with medium A), and 10 μL of 10 μg/mL lipopolysaccharide (Sigma-Aldrich Co. LLC.) solution (diluted with medium A) were each added in advance to the same well of a Falcon 96-well flat bottom plate (Corning Incorporated), and the above-mentioned cell suspension was dispensed at 50 μL/well (final concentration of test compound 10 μg/mL). 2.5 μL of DMSO diluted 10-fold with medium A was added to the control well instead of the compound solution. After culturing at 37° C. in a 5% CO2 stream for 24 hr, the cell survival rate was measured using WST-1 (DOJINDO LABORATORIES) or WST-8 kit (KISHIDA CHEMICAL Co., Ltd.) and according to each instruction manual attached thereto.

Cl.O=C1CCC(n2cc(-c3cscc3OCc3ccc(CN4CCCCC4)cc3)nn2)C(=O)N1 (stereo not drawn) [compound 42, 3-(4-{4-[4-(piperidin-1-ylmethyl)benzyloxy]thiophen-3-yl}-1H-1,2,3-triazol-1-yl)piperidine-2,6-dione hydrochloride]
viability at 10 µM (MM.1S cells): 27%
viability at 10 µM (Pfeiffer cells): 63%
cell survival rate (% of control) PBMC [1]: 103 % of control

O=C1CCC(n2cc(-c3cscc3OCc3ccc(Cl)cc3)nn2)C(=O)N1 (stereo not drawn) [compound 43, 3-{4-[4-(4-chlorobenzyloxy)thiophen-3-yl]-1H-1,2,3-triazol-1-yl}piperidine-2,6-dione]
viability at 10 µM (MM.1S cells): 30%
viability at 10 µM (Pfeiffer cells): 89%
cell survival rate (% of control) PBMC [1]: 98 % of control

CC(Oc1cscc1-c1cn(C2CCC(=O)NC2=O)nn1)c1ccccc1 (stereo not drawn) [compound 44, 3-{4-[4-(1-phenylethoxy)thiophen-3-yl]-1H-1,2,3-triazol-1-yl}piperidine-2,6-dione]
viability at 10 µM (MM.1S cells): 33%
viability at 10 µM (Pfeiffer cells): 94%
cell survival rate (% of control) PBMC [1]: 105 % of control

Cl.O=C1CCC(n2cc(-c3cscc3OCc3ccc(CCN4CCOCC4)cc3)nn2)C(=O)N1 (stereo not drawn) [compound 45, 3-(4-{4-[4-(2-morpholinoethyl)benzyloxy]thiophen-3-yl}-1H-1,2,3-triazol-1-yl)piperidine-2,6-dione hydrochloride]
viability at 10 µM (MM.1S cells): 31%
viability at 10 µM (Pfeiffer cells): 78%
cell survival rate (% of control) PBMC [1]: 110 % of control

CN(C)Cc1ccc(COc2cscc2-c2cn(C3CCC(=O)NC3=O)nn2)cc1.Cl (stereo not drawn) [compound 46, 3-[4-(4-{4-[(dimethylamino)methyl]benzyloxy}thiophen-3-yl)-1H-1,2,3-triazol-1-yl]piperidine-2,6-dione hydrochloride]
viability at 10 µM (MM.1S cells): 35%
viability at 10 µM (Pfeiffer cells): 84%
cell survival rate (% of control) PBMC [1]: 110 % of control

O=C1CCC(n2cc(-c3cscc3OCc3cc4ccccc4s3)nn2)C(=O)N1 (stereo not drawn) [compound 47, 3-{4-[4-(benzo[b]thiophen-2-ylmethoxy)thiophen-3-yl]-1H-1,2,3-triazol-1-yl}piperidine-2,6-dione]
viability at 10 µM (MM.1S cells): 64%
viability at 10 µM (Pfeiffer cells): 99%
cell survival rate (% of control) PBMC [1]: 106 % of control

O=C1CCC(n2nnc(-c3ccsc3)c2Br)C(=O)N1 (stereo not drawn) [compound 48, 3-[5-bromo-4-(thiophen-3-yl)-1H-1,2,3-triazol-1-yl]piperidine-2,6-dione]
viability at 10 µM (MM.1S cells): 85%
viability at 10 µM (Pfeiffer cells): 98%
cell survival rate (% of control) PBMC [1]: 138 % of control

COc1cscc1-c1nnn(C2CCC(=O)NC2=O)c1I (stereo not drawn) [compound 49, 3-[5-iodo-4-(4-methoxythiophen-3-yl)-1H-1,2,3-triazol-1-yl]piperidine-2,6-dione]
viability at 10 µM (MM.1S cells): 48%
viability at 10 µM (Pfeiffer cells): 75%
cell survival rate (% of control) PBMC [1]: 102 % of control
